Assays:
rat [1] = settings: Developmental neurotoxicity study; long evans; Injection; Intraperitoneal; dose end: 21 PND; group: cannot be grouped; systemic / in life observation / body weight / offspring (pup) weight
rat [2] = settings: Developmental neurotoxicity study, long evans, Injection, Intraperitoneal, dose end: 66 PND, group: cannot be grouped
rat [3] = settings: Developmental neurotoxicity study, long evans, Injection, Intraperitoneal, dose end: 122 PND, group: cannot be grouped
rat [4] = settings: Developmental neurotoxicity study; long evans; Injection; Intraperitoneal; dose end: 18 PND; group: cannot be grouped; systemic / pathology gross / brain / reduced size + systemic / pathology microscopic / brain / depletion cellular
rabbit = settings: Prenatal developmental toxicity study, new zealand white, Oral, Gavage/Intubation, dose end: 28 GD
mouse [5] = settings: Subchronic oral toxicity in rodents, cd1, Feed, dose end: 90 day, group: systemic
rat [6] = settings: Prenatal developmental toxicity study, sprague dawley, Oral, Gavage/Intubation, dose end: 17 GD
rat [7] = settings: Subchronic inhalation toxicity, wistar, Whole-Body, dose end: 78 day, group: systemic, systemic / organ weight / kidney / nos + systemic / organ weight / liver / nos + systemic / organ weight / ovary / nos + systemic / …
rat [8] = settings: Multigenerational reproductive toxicity study, other, Oral, Feed, dose end: 2 generation
rat [9] = settings: Combined chronic toxicity/carcinogenicity; sprague dawley; Oral; Feed; dose end: 104 week; group: systemic; systemic / hematology / blood clotting / blood clotting - thromboplastin time + systemic / hematology / platelet / platelet + systemic / …
dog [10] = settings: Chronic toxicity; beagle; Oral; Feed; dose end: 52 week; group: systemic; systemic / hematology / blood clotting / blood clotting - prothrombin time + systemic / hematology / erythrocyte (rbc) count differential / …
mouse [11] = settings: Carcinogenicity, cd1, Oral, Feed, dose end: 108 week, group: systemic
rat [12] = settings: Subchronic oral toxicity in rodents, sprague dawley, Feed, dose end: 13 week, group: systemic
rat [13] = settings: Prenatal developmental toxicity study; sprague dawley; Oral; Gavage/Intubation; dose end: 15 GD; group: maternal; reproductive / reproductive performance / postimplantation loss / postimplantation loss + reproductive / reproductive performance / …
rat [14] = settings: Subchronic oral toxicity in rodents, Feed, dose end: 13 week
rat [15] = settings: Combined chronic toxicity/carcinogenicity, sprague dawley, Oral, Feed, dose end: 103 week
dog [16] = settings: Chronic toxicity, beagle, Oral, Feed, dose end: 104 week
[17] = systemic / clinical chemistry / [other] / [other] + systemic / clinical chemistry / protein / protein + systemic / in life observation / …
[18] = systemic / clinical chemistry / [other] / [other] + systemic / clinical chemistry / protein / protein + systemic / organ weight / brain / …
[19] = systemic / in life observation / body weight / offspring (pup) weight + systemic / in life observation / clinical signs / [other] + systemic…
[20] = systemic / organ weight / brain / nos
[21] = group: developmental, systemic / in life observation / body weight / fetal weight
[22] = group: maternal, reproductive / reproductive performance / aborted / aborted + reproductive / reproductive performance / postimplantation loss / …
[23] = systemic / hematology / erythrocyte (rbc) count differential / erythrocyte (rbc) + systemic / hematology / hematocrit (hct) / hematocrit (…
[24] = group: developmental, systemic / in life observation / clinical signs / mobility + systemic / in life observation / clinical signs / rearing activity + …
[25] = group: maternal, systemic / in life observation / clinical signs / salivation
[26] = group: offspring, systemic / organ weight / liver / relative to body weight
[27] = group: offspring, systemic / organ weight / liver / relative to body weight + systemic / in life observation / body weight / offspring (pup) weight + systemic…
[28] = group: parental, systemic / organ weight / thyroid gland / absolute
[29] = systemic / in life observation / body weight / body weight gain + systemic / in life observation / mortality / mortality
[30] = systemic / in life observation / body weight / body weight gain + systemic / in life observation / mortality / mortality + systemic / …
[31] = systemic / clinical chemistry / alanine aminotransferase (alt/sgpt) / alanine aminotransferase (alt/sgpt) + systemic / clinical chemistry / …
[32] = group: cholinesterase, cholinesterase / cholinesterase / cholinesterase / whole blood cholinesterase (che) + cholinesterase / cholinesterase / cholinesterase / …
[33] = group: systemic, systemic / in life observation / food consumption / food consumption
[34] = group: cholinesterase, cholinesterase / cholinesterase / cholinesterase / brain cholinesterase (che)
[35] = group: cholinesterase, cholinesterase / cholinesterase / cholinesterase / brain cholinesterase (che) + cholinesterase / cholinesterase / cholinesterase / plasma …
[36] = group: systemic, systemic / pathology microscopic / eye / cataract
[37] = group: cholinesterase, cholinesterase / cholinesterase / cholinesterase / brain cholinesterase (che) + cholinesterase / cholinesterase / cholinesterase / whole …
[38] = group: systemic, systemic / in life observation / water consumption / water consumption

[CH3][Sn+]([CH3])[CH3].[OH-] [Trimethyltin hydroxide]
LEL (rat [1]): 6 mg/kg/day
LOAEL (rat [1]): > 6 mg/kg/day
NEL (rat [1]): 5 mg/kg/day
NOAEL (rat [1]): ≥ 6 mg/kg/day
LOAEL (rat [2]; [17]): > 6 mg/kg/day
NOAEL (rat [2]; [17]): ≥ 6 mg/kg/day
LEL (rat [2]; [18]): 5 mg/kg/day
NEL (rat [2]; [18]): < 5 mg/kg/day
LOAEL (rat [3]; [19]): > 6 mg/kg/day
NOAEL (rat [3]; [19]): ≥ 6 mg/kg/day
LEL (rat [3]; [20]): 4 mg/kg/day
NEL (rat [3]; [20]): < 4 mg/kg/day
LEL (rat [4]): 6 mg/kg/day
LOAEL (rat [4]): > 6 mg/kg/day
NEL (rat [4]): < 6 mg/kg/day
NOAEL (rat [4]): ≥ 6 mg/kg/day

CCOc1ccc(C(C)(C)COCc2cccc(Oc3ccccc3)c2)cc1 [Etofenprox]
LEL (rabbit; [21]): 300 mg/kg/day
LOAEL (rabbit; [21]): 300 mg/kg/day
NEL (rabbit; [21]): 100 mg/kg/day
NOAEL (rabbit; [21]): 100 mg/kg/day
LEL (rabbit; [22]): 300 mg/kg/day
LOAEL (rabbit; [22]): 300 mg/kg/day
NEL (rabbit; [22]): 100 mg/kg/day
NOAEL (rabbit; [22]): 100 mg/kg/day
LOAEL (mouse [5]; [23]): 375 mg/kg/day
NEL (mouse [5]; [23]): 6.1 mg/kg/day
NOAEL (mouse [5]; [23]): 60 mg/kg/day
LEL (mouse [5]; systemic / hematology / mean corpuscular (cell) volume (mcv) / mean corpuscular (cell) volume (mcv) + systemic / hematology / monocytes / …): 60 mg/kg/day
LEL (rat [6]; group: developmental, systemic / in life observation / clinical signs / mobility + systemic / in life observation / clinical signs / rearing activity): 250 mg/kg/day
LOAEL (rat [6]; [24]): 5000 mg/kg/day
NEL (rat [6]; [24]): 12.5 mg/kg/day
NOAEL (rat [6]; [24]): 250 mg/kg/day
LOAEL (rat [6]; group: maternal, systemic / in life observation / clinical signs / anogenital staining + systemic / in life observation / clinical signs / scabbing): 5000 mg/kg/day
LEL (rat [6]; [25]): 12.5 mg/kg/day
NEL (rat [6]; [25]): < 12.5 mg/kg/day
NOAEL (rat [6]; group: maternal, systemic / in life observation / clinical signs / salivation + systemic / in life observation / clinical signs / anogenital staining + …): 250 mg/kg/day
LEL (rat [7]): 52.3 mg/kg/day
LOAEL (rat [7]): 52.3 mg/kg/day
NEL (rat [7]): 10.6 mg/kg/day
NOAEL (rat [7]): 10.6 mg/kg/day
LEL (rat [8]; [26]): 35 mg/kg/day
LOAEL (rat [8]; [26]): 35 mg/kg/day
NEL (rat [8]; [27]): 5 mg/kg/day
NOAEL (rat [8]; [27]): 5 mg/kg/day
LOAEL (rat [8]; group: parental, systemic / organ weight / liver / relative to body weight): 35 mg/kg/day
NOAEL (rat [8]; group: parental, systemic / organ weight / liver / relative to body weight + systemic / in life observation / clinical signs / discharge on cageboard + …): 5 mg/kg/day
LEL (rat [8]; [28]): 5 mg/kg/day
NEL (rat [8]; [28]): < 5 mg/kg/day
LEL (rat [9]): 1.1 mg/kg/day
LOAEL (rat [9]): 25.5 mg/kg/day
NEL (rat [9]): < 1.1 mg/kg/day
NOAEL (rat [9]): 3.7 mg/kg/day
LEL (dog [10]): 339 mg/kg/day
LOAEL (dog [10]): 339 mg/kg/day
NEL (dog [10]): 32.2 mg/kg/day
NOAEL (dog [10]): 32.2 mg/kg/day
LEL (mouse [11]; [29]): 10.4 mg/kg/day
LOAEL (mouse [11]; [29]): 10.4 mg/kg/day
NEL (mouse [11]; [30]): 3.1 mg/kg/day
NOAEL (mouse [11]; [30]): 3.1 mg/kg/day
LOAEL (rat [12]; [31]): 120 mg/kg/day
NOAEL (rat [12]; [31]): 20 mg/kg/day
LEL (rat [12]; systemic / clinical chemistry / glucose / glucose): 23 mg/kg/day
NEL (rat [12]; systemic / clinical chemistry / glucose / glucose + systemic / clinical chemistry / alanine aminotransferase (alt/sgpt) / alanine …): 3.8 mg/kg/day

CNC(=O)Oc1cccc2c1OC(C)(C)O2 [Bendiocarb]
LEL (rat [13]): 10 mg/kg/day
LOAEL (rat [13]): 10 mg/kg/day
NEL (rat [13]): 2 mg/kg/day
NOAEL (rat [13]): 2 mg/kg/day
NEL (rat [14]; group: cholinesterase, cholinesterase / cholinesterase / cholinesterase / plasma cholinesterase (che) + cholinesterase / cholinesterase / cholinesterase / whole …): 0.5 mg/kg/day
LEL (rat [14]; group: cholinesterase, cholinesterase / cholinesterase / cholinesterase / whole blood cholinesterase (che)): 2.5 mg/kg/day
LOAEL (rat [14]; [32]): > 12.5 mg/kg/day
NOAEL (rat [14]; [32]): ≥ 12.5 mg/kg/day
LEL (rat [14]; [33]): 12.5 mg/kg/day
LOAEL (rat [14]; [33]): 12.5 mg/kg/day
NEL (rat [14]; [33]): 2.5 mg/kg/day
NOAEL (rat [14]; [33]): 2.5 mg/kg/day
LEL (rat [15]; [34]): 0.86 mg/kg/day
LOAEL (rat [15]; [34]): 0.86 mg/kg/day
NEL (rat [15]; [35]): 0.42 mg/kg/day
NOAEL (rat [15]; [35]): 0.42 mg/kg/day
LEL (rat [15]; [36]): 0.72 mg/kg/day
LOAEL (rat [15]; [36]): 0.72 mg/kg/day
NEL (rat [15]; [36]): 0.35 mg/kg/day
NOAEL (rat [15]; [36]): 0.35 mg/kg/day
LEL (dog [16]; [37]): 15 mg/kg/day
LOAEL (dog [16]; [37]): 15 mg/kg/day
NEL (dog [16]; [37]): 3 mg/kg/day
NOAEL (dog [16]; [37]): 3 mg/kg/day
LEL (dog [16]; [38]): 3 mg/kg/day
LOAEL (dog [16]; [38]): > 15 mg/kg/day
NEL (dog [16]; [38]): 0.7 mg/kg/day
NOAEL (dog [16]; [38]): ≥ 15 mg/kg/day

Reference: EPA's ToxRefDB 2
